Measured values as given in patent US4073903A, “3-Desacetoxymethyl-3- 5'(1-methyltetrazolyl)thio!methyl-7- 1-(4-nitr oimidazolyl)acetyl!aminocephalosporanic acid” (Pierrel S.p.A., priority 1975, dated 1978).
In brackets after ≈: the same amount, converted by molar mass. Like-named read-outs stand apart in the source and are kept apart here.

Key:
[1] = system: Escherichia coli; assay: MIC against clinical isolates, broth dilution test (Table III); conditions: Escherichia coli, 24 h
[2] = system: Escherichia coli; assay: Treatment of mice systemically infected with Escherichia coli (Table V); conditions: in Mus musculus, 168 h, read-out: ED50 per treatment
[3] = system: Salmonella heidelberg; assay: MIC against Ampicillin-resistant clinical isolates, broth dilution test (Table IV); conditions: Salmonella enterica, 24 h, read-out: Minimun inhibitory concentration (MIC)
[4] = system: Klebsiella pneumoniae; assay: MIC against clinical isolates, broth dilution test (Table II); conditions: Klebsiella pneumoniae, 24 h
[5] = system: Salmonella essen; assay: MIC against Ampicillin-resistant clinical isolates, broth dilution test (Table IV); conditions: Salmonella enterica, 24 h, read-out: Minimun inhibitory concentration (MIC)
[6] = system: Klebsiella pneumoniae; conditions: in Mus musculus, 168 h, read-out: ED50 per treatment
[7] = system: Salmonella wien; assay: MIC against Ampicillin-resistant clinical isolates, broth dilution test (Table IV); conditions: Salmonella enterica, 24 h

Q: For `Cc1nnc(SCC2=C(C(=O)O)N3C(=O)[C@@H](NC(=O)Cn4cnnn4)[C@H]3SC2)s1` [Cefazolin, reference compound], which MIC ([1]; read-out: Minimum inhibitory concentration (MIC), clinical isolate LRP 87) is on record?
A: Its MIC is 25 µg/mL (≈ 55 µM).

Q: And the MIC ([1]; read-out: Minimum inhibitory concentration (MIC), clinical isolate LRP 94)?
A: The MIC was 6.25 µg/mL (≈ 13.8 µM).

Q: And the MIC ([1]; read-out: Minimum inhibitory concentration (MIC), clinical isolate LRP 96)?
A: The MIC was 6.25 µg/mL (≈ 13.8 µM).

Q: What about the MIC ([1]; read-out: Minimum inhibitory concentration (MIC), clinical isolate LRP 110) of the same compound?
A: Its MIC is 6.25 µg/mL (≈ 13.8 µM).

Q: What about the MIC ([1]; read-out: Minimum inhibitory concentration (MIC), clinical isolate LRP 143) of the same compound?
A: The MIC was 1.56 µg/mL (≈ 3.43 µM).

Q: And the MIC ([1]; read-out: Minimum inhibitory concentration (MIC), clinical isolate LRP 150)?
A: The MIC was 12.5 µg/mL (≈ 27.5 µM).

Q: And the MIC ([1]; read-out: Minimum inhibitory concentration (MIC), clinical isolate LRP 151)?
A: Its MIC is 12.5 µg/mL (≈ 27.5 µM).

Q: What about the MIC ([1]; read-out: Minimum inhibitory concentration (MIC), clinical isolate LRP 152) of the same compound?
A: The MIC was 100 µg/mL (≈ 220 µM).

Q: And the MIC ([1]; read-out: Minimum inhibitory concentration (MIC), clinical isolate LRP 154)?
A: Its MIC is 3.12 µg/mL (≈ 6.86 µM).

Q: And the MIC ([1]; read-out: Minimum inhibitory concentration (MIC), clinical isolate LRP 155)?
A: Its MIC is 1.56 µg/mL (≈ 3.43 µM).

Q: And the MIC ([1]; read-out: Minimum inhibitory concentration (MIC), clinical isolate LRP 156)?
A: The MIC was 6.25 µg/mL (≈ 13.8 µM).

Q: And the MIC ([1]; read-out: Minimum inhibitory concentration (MIC), clinical isolate LRP 158)?
A: Its MIC is 25 µg/mL (≈ 55 µM).

Q: And the MIC ([1]; read-out: Minimum inhibitory concentration (MIC), clinical isolate LRP 159)?
A: The MIC was 1.56 µg/mL (≈ 3.43 µM).

Q: And the MIC ([1]; read-out: Minimum inhibitory concentration (MIC), clinical isolate LRP 163)?
A: Its MIC is 3.12 µg/mL (≈ 6.86 µM).

Q: And the ED50 [2]?
A: The ED50 was 35 mg/kg.

Q: And the MIC [3]?
A: The MIC was 12.5 µg/mL (≈ 27.5 µM).

Q: What about the MIC ([4]; read-out: Minimum inhibitory concentration (MIC), clinical isolate LRP 128) of the same compound?
A: The MIC was 25 µg/mL (≈ 55 µM).

Q: What about the MIC ([4]; read-out: Minimum inhibitory concentration (MIC), clinical isolate LRP 129) of the same compound?
A: Its MIC is 3.12 µg/mL (≈ 6.86 µM).

Q: What about the MIC ([4]; read-out: Minimum inhibitory concentration (MIC), clinical isolate LRP 130) of the same compound?
A: The MIC was 25 µg/mL (≈ 55 µM).

Q: What about the MIC ([4]; read-out: Minimum inhibitory concentration (MIC), clinical isolate LRP 131) of the same compound?
A: Its MIC is 25 µg/mL (≈ 55 µM).

Q: What about the MIC ([4]; read-out: Minimum inhibitory concentration (MIC), clinical isolate LRP 132) of the same compound?
A: Its MIC is 1.56 µg/mL (≈ 3.43 µM).

Q: And the MIC ([4]; read-out: Minimum inhibitory concentration (MIC), clinical isolate LRP 133)?
A: The MIC was 1.56 µg/mL (≈ 3.43 µM).

Q: And the MIC ([4]; read-out: Minimum inhibitory concentration (MIC), clinical isolate LRP 134)?
A: The MIC was 3.12 µg/mL (≈ 6.86 µM).

Q: What about the MIC ([4]; read-out: Minimum inhibitory concentration (MIC), clinical isolate LRP 135) of the same compound?
A: The MIC was 25 µg/mL (≈ 55 µM).

Q: What about the MIC ([4]; read-out: Minimum inhibitory concentration (MIC), clinical isolate LRP 136) of the same compound?
A: The MIC was 50 µg/mL (≈ 110 µM).

Q: And the MIC ([4]; read-out: Minimum inhibitory concentration (MIC), clinical isolate LRP 137)?
A: Its MIC is 0.25 µg/mL (≈ 0.55 µM).

Q: What about the MIC [5] of the same compound?
A: The MIC was 6.25 µg/mL (≈ 13.8 µM).

Q: What about the ED50 [6] of the same compound?
A: Its ED50 is 90 mg/kg.

Q: What about the MIC ([7]; read-out: Minimun inhibitory concentration (MIC), Ampicillin-resistant clinical isolate LRP 138) of the same compound?
A: Its MIC is 25 µg/mL (≈ 55 µM).

Q: What about the MIC ([7]; read-out: Minimun inhibitory concentration (MIC), Ampicillin-resistant clinical isolate LRP 140) of the same compound?
A: The MIC was 50 µg/mL (≈ 110 µM).

Q: And the MIC ([7]; read-out: Minimun inhibitory concentration (MIC), Ampicillin-resistant clinical isolate LRP 141)?
A: The MIC was 100 µg/mL (≈ 220 µM).
